# Measurements reported in ChEMBL document CHEMBL4014297, “Discovery of small molecule inhibitors for the snake venom metalloprotease BaP1 using in silico and in vitro tests” (Bioorg Med Chem Lett, 2017).
# The source made the active and inactive calls. The rule behind the calls is not given here.
# What was measured:
# [1] = target: T1, Snake venom metalloproteinase BaP1 (Bothrops asper, UniProt P83512); experiment: Inhibition of Bothrops asper venom metalloprotease BaP1 assessed as reduction in proteolytic activity using azocasein as substrate measured after 90 mins by colorimetric method
# T1 sequence (P83512 whole entry): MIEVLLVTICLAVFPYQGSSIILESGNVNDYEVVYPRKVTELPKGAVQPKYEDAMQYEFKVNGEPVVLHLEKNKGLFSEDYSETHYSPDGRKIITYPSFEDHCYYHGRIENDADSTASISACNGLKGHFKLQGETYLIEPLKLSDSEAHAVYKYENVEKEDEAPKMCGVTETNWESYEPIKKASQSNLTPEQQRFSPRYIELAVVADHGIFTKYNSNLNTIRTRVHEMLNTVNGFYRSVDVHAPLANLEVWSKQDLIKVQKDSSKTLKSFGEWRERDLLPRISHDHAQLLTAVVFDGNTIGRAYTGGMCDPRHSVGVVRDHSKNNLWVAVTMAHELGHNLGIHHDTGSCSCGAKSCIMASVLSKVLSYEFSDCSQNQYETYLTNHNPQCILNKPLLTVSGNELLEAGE
# [2] = target: T2, Snake venom metalloproteinase BaP1 (Bothrops asper) (UniProt P83512); experiment: Inhibition of Bothrops asper venom metalloprotease BaP1 assessed as reduction in proteolytic activity at 100 umol/dm3 using azocasein as substrate measured after 90 mins by colorimetric method relative to control
# T2 sequence (whole entry): T1 sequence (P83512 whole entry)
# [3] = target: T1, Snake venom metalloproteinase BaP1; experiment: Binding affinity to Bothrops asper venom metalloprotease BaP1 assessed as Stern-Volmer quenching constant by fluorescence spectroscopic method
# [4] = target: T2, Snake venom metalloproteinase BaP1 (Bothrops asper); experiment: Binding affinity to Bothrops asper venom metalloprotease BaP1 by fluorescence spectroscopic method
# [5] = target: T2, Snake venom metalloproteinase BaP1 (Bothrops asper); experiment: Binding affinity to Bothrops asper venom metalloprotease BaP1 assessed as red shift by fluorescence spectroscopic method
compound,measurement,setting,value
Cc1ccc(OCC(=O)N/N=C2\C(=O)NC(=O)N=C2O)cc1,IC50,[1],20 µM
same,inhibition,[2],98%
same,Kd,[3],37.1 µM
same,Activity,[4],Active
same,Activity,[5],11 nm
CC(C)c1ccc(OCC(=O)N/N=C2\C(=O)NC(=O)N=C2O)cc1,IC50,[1],17 µM
same,inhibition,[2],95%
same,Kd,[3],33.6 µM
same,Activity,[4],Active
same,Activity,[5],7 nm
